# Data published in patent US20260001946A1, “TREATMENT OF A DISEASE OR CONDITION IN A TISSUE ORIGINATING FROM THE ENDODERM” (BT Bidco, Inc., priority 2018, published 2026).
# Counter-ions that a name gives are not always drawn. Like-named read-outs stand apart in the source and are kept apart here.
# How the values were obtained:
# [1] = female, Yorkshire-Cross, swine, in vivo, po, 0.09 mg/kg
# Experimental: FIG. 76 is a graph showing the mean concentration of tacrolimus in the cecum tissue and the proximal colon tissue 12 hours after intracecal or oral administration of tacrolimus to swine as described in Example 10.
# FIG. 79 is a graph showing the mean concentration of tacrolimus in the cecum tissue, the proximal colon tissue, the spiral colon tissue, the transverse colon tissue, and the distal colon tissue after intracecal (IC) or oral administration (PO) of tacrolimus in swine as described in Example 13. ****P<0.0001, ***P<0.001.
# FIG. 90 is a graph showing the mean concentration of tacrolimus in the cecum, the proximal colon, the spiral colon, the transverse colon, and the distal colon of swine after intracecal (IC) or oral administration (PO) of tacrolimus as described in Example 10.
# [2] = Tissue, plasma, rectal sample and GI content pharmacokinetics of tacrolimus, oral vs intra-cecal ingestible device (Example 10); set-up: species or system Yorkshire-Cross farm swine; conditions: in vivo
# Experimental: The primary objective of this study was to compare the tissue, plasma, rectal sample, and GI content pharmacokinetics of tacrolimus through oral versus intra-cecal ingestible device delivery in normal Yorkshire-Cross farm swine.
# (§1) No further randomization procedure was employed.
# Animals in Group 1 received an ingestible device containing 0.8 mL of vehicle solution (80% alcohol, 20% HCO-60). Animals in Group 2 received orally […] liquid formulation of tacrolimus at 4 mg/0.8 mL per animal (Prograf: 5 mg/mL). Animals in Group 3 received intra-cecally an ingestible device containing tacrolimus at 1 mg in 0.8 mL per ingestible device. Animals in Group 4 received intra-cecally an ingestible device containing tacrolimus at 2 mg in 0.8 mL per ingestible device. Animals in Group 5 received intra-cecally an ingestible device containing tacrolimus at 4 mg in 0.8 mL per ingestible device. To control for potential confounding effects of the surgery, all groups fast on Day −11 at least 24 hr before being subjected to anesthesia followed by surgical placements of a cecal port by a veterinary surgeon at Day −10. All animals were fasted for at least 12 hr prior to dosing on Day 1. Animals were dosed via either intra-cecal dosing (IC) or oral dosing (PO) at Day 1 (between 6-8 p.m.). All animals resumed feeding at approximately 4 hours after dose (11-12 p.m. after dosing).
# Animals in Group 1 (Vehicle Control) were administered a single intra-cecal ingestible device containing 0.8 mL Vehicle solution (80% alcohol, 20% castor oil (HCO-60) on Day 1. On Day −10 the animals were anesthetized, and a veterinary surgeon surgically placed an intra-cecal port in each animal. On Day 1, each animal was placed into a sling then a single intra-cecal ingestible device containing 0.8 mL vehicle solution (80% alcohol, 20% castor oil (HCO-60)) is introduced by the veterinary surgeon into the cecum via the cecal port in each animal. Following ingestible device placement, the animals were removed from the slings and placed back into their pens with water. All animals resumed feeding at approximately 4 hours after dose. […] A total of 60 samples were collected.
# Approximately 200˜400 mg of rectal content were collected, if available, with a fecal swab (Copan Diagnostics Nylon Flocked Dry Swabs, 502CS01). The fecal swab was pre-weighed and weighed after collection in the collection tube (Sterile Tube and Cap No Media, PFPM913S), and the sample weight was recorded. The fecal swab was broken via the breakpoint, and was stored in the collection tube, and immediately frozen at −70° C. […] Immediately following euthanasia, tissue was collected.
# For tissue necropsy, small intestine fluid and cecal fluid were collected separately from all the animals into two separate square plastic bottles, and stored at −20° C. The length and diameter of the cecum and the colon was measured from one animal in each group and recorded for reference. Tissues were collected for pharmacokinetic analyses and include mesenteric lymph nodes, a Peyer's Patch, and five gastrointestinal sections, including cecum, proximal colon, transverse colon, distal colon, and rectum. All samples were weighed, and the tissue sample weights were recorded. […] Around 3 grams of the total punched sample were collected into a pre-weighed 15-mL conical tube, and the tissue weight was recorded. […]
# [3] = Tacrolimus blood concentration and AUC0-12 hours after IC or PO administration; conditions: female, Yorkshire-Cross, swine, in vivo
# Experimental: FIG. 77 is a graph showing the mean concentration of tacrolimus in the blood 1 hour, 2 hours, 3 hours, 4 hours, 6 hours and 12 hours after intracecal (IC) or oral administration (PO) of tacrolimus to swine as described in Example 13.
# FIG. 78 is a graph showing the AUC0-12 hours of tacrolimus in the blood after intracecal (IC) or oral administration (PO) of tacrolimus in swine as described in Example 13.
# FIG. 87 is a graph showing the mean concentration of tacrolimus in the blood of swine 1 hour, 2 hours, 3 hours, 4 hours, 6 hours, and 12 hours after intracecal (IC) or oral administration (PO) of tacrolimus as described in Example 10.
# FIG. 88 is a graph showing the AUC0-12 hours of tacrolimus in the blood of swine after intracecal (IC) or oral administration (PO) of tacrolimus as described in Example 10.
# [4] = Pharmacokinetics of oral vs intra-cecal tacrolimus: blood, rectal contents, GI tissue and luminal content (Example 13); set-up: species or system Yorkshire-Cross farm swine; conditions: in vivo
# Text: as §1
# [5] = test system: IL-6, GM-CSF, IL-15, IL-2, IL-12, IL-13, TNF-α, INF-γ
structure (smiles),measurement,setting,value
C=CC[C@@H]1/C=C(\C)C[C@H](C)C[C@H](OC)[C@H]2O[C@@](O)(C(=O)C(=O)N3CCCC[C@H]3C(=O)O[C@H](/C(C)=C/[C@@H]3CC[C@@H](O)[C@H](OC)C3)[C@H](C)[C@@H](O)CC1=O)[C@H](C)C[C@@H]2OC [tacrolimus],Tissue(mean) (ng/g)/AUG(0-12 hr) (ng · hr/mL) Ratio,[1],0
same,Tissue(mean) (ng/g)/AUG(0-12 hr) (ng · hr/mL) Ratio,[1]; 12 h,0
same,exposure AUC,[2],< 2000-12 ng·h/mL
same,mean concentration of tacrolimus in the cecum tissue and the proximate colon tissue,[2],higher
same,"tissue (spiral and transverse colon) and luminal content (spiral, transverse, and distal colon) concentrations",[2],Significantly higher
same,level of tacrolimus in tissue,[2]; po,No measurable level
same,rectal content concentration,[2]; po,no detectable level
same,concentration at 12 h,[3]; 0.02 mg/kg,0.746 ± 0.038 ng/mL
same,concentration at 12 h,[3]; 0.04 mg/kg,1.96 ± 0.491 ng/mL
same,concentration at 12 h,[3]; 0.09 mg/kg,4.35 ± 0.516 ng/mL
same,concentration at 12 h,"[3]; po, 0.09 mg/kg",0.568 ± 0.291 ng/mL
same,concentration at 12 h,"[4]; female, Yorkshire-Cross, swine, 0.02 mg/kg, Trough (12 hr)",0.746 ± 0.038 ng/mL
same,concentration at 12 h,"[4]; female, Yorkshire-Cross, swine, 0.04 mg/kg, Trough (12 hr)",1.96 ± 0.491 ng/mL
same,concentration at 12 h,"[4]; female, Yorkshire-Cross, swine, 0.09 mg/kg, Trough (12 hr)",4.35 ± 0.561 ng/mL
same,Ratio Tissue(mean)/Trough(12 hr),"[4]; female, Yorkshire-Cross, swine, po, 0.09 mg/kg, 12 h",0
same,Kp at 12 h,"[4]; female, Yorkshire-Cross, swine, po, 0.09 mg/kg, Ratio Tissue(mean)/Trough(12 hr)",0
same,concentration at 12 h,"[4]; female, Yorkshire-Cross, swine, po, 0.09 mg/kg, Trough (12 hr)",0.568 ± 0.291 ng/mL
same,concentration at 12 h,"[4]; female, Yorkshire-Cross, swine, po, 0.09 mg/kg, Trough level (12 hr)",0.568 ng/mL
same,"mean concentration of tacrolimus in the spiral colon lumen, the transverse colon lumen, and the distal colon lumen",[4],statistically higher
same,mean concentration of tacrolimus in the spiral colon tissue and the transverse colon tissue,[4],statistically higher
same,mean concentration and AUC0-12 hours of tacrolimus in the blood,"[4]; po, 0.09 mg/kg",higher
C[C@@H]1CCN(C(=O)CC#N)C[C@@H]1N(C)c1ncnc2[nH]ccc12 [tofacitinib citrate],IL-6 expression in plasma,"[5]; PO or IC administration, 1 h and 3 h post-treatment",inhibition of IL-6 expression
same,inhibition of IL-6 expression in colon tissue,[5]; all IC treated groups and high dose PO group (45 mg/kg) (FIG. 112B),sustained through 24 h post-dose
same,GM-CSF levels in plasma or colon tissue,[5]; between IC and PO treatment groups,nor was there a significant difference
same,IL-6 inhibition in colon tissue,"[5]; low dose PO group (15 mg/kg), by 12 h post-dose",Recovery from IL-6 inhibition was observed
